Values of other authors in US20130143937A1, “CHLORTHALIDONE COMBINATIONS” (Boehringer Ingelheim International GmbH, priority 2003, published 2013).

Conditions: in vivo

Row | SMILES | mean plasma half-life
1 | NS(=O)(=O)c1cc2c(cc1Cl)NCNS2(=O)=O [hydrochlorothiazide] | about 24 hours
2 | NS(=O)(=O)c1cc(C2(O)NC(=O)c3ccccc32)ccc1Cl (centres unmarked) [chlorthalidone, 2-chloro-5-(2,3-dihydro-1-hydroxy-3-oxo-1h-isoindol-1-yl)benzene-sulfonamide] | 40 to 60 h
